Laboratory results taken from the CheMixHub ionic liquid set.

Experiment: xn = mol fraction of the nth substance listed

Cc1ccc(S(=O)(=O)O)cc1 + C[N+](C)(C)Cc1ccccc1.[Cl-]
101 kPa, x2 = 0.3
Conditions	electrical conductivity [S/m]	viscosity [mPa·s]
292.97 K	–	15200
298 K	–	12900
302.95 K	–	8733
307.99 K	–	5078
308.2 K	0.05721	–
313.02 K	–	2889
313.22 K	0.08258	–
317.95 K	–	1701
318.31 K	0.1275	–
323.05 K	–	1092
323.16 K	0.187	–
328.06 K	–	791
328.17 K	0.2562	–
332.98 K	–	452
333.27 K	0.345	–

CC(N)C(=O)[O-].CCCC[n+]1ccn(C)c1C + O
viscosity [mPa·s], 100 kPa
Conditions	x1 = 0.1003	x1 = 0.3009	x1 = 0.6987	x1 = 1
293.15 K	22.3	–	200	370
313.15 K	–	–	70	–
318.15 K	–	18.9	–	87

C[NH2+]CCC=C1c2ccccc2CCc2ccccc21.[Cl-] + CCCCCC[n+]1ccn(C)c1.[Br-] + O
viscosity [mPa·s], 100 kPa
Conditions	288.15 K	298.15 K	308.15 K	318.15 K
x1 = 0.0002039, x2 = 0.00126	1.185	0.957	0.792	0.677
x1 = 0.000208, x2 = 0.0001801	1.17	0.938	0.775	0.658
x1 = 0.0002218, x2 = 0.0007201	1.178	0.948	0.785	0.658
x1 = 0.0005639, x2 = 0.0001801	1.181	0.948	0.785	0.667
x1 = 0.0005652, x2 = 0.001259	1.196	0.967	0.802	0.688
x1 = 0.0005656, x2 = 0.0007199	1.189	0.957	0.794	0.667
x1 = 0.0009086, x2 = 0.0007196	1.201	0.967	0.803	0.676
x1 = 0.0009302, x2 = 0.00018	1.192	0.958	0.795	0.676
x1 = 0.0009557, x2 = 0.001259	1.208	0.978	0.812	0.699
x1 = 0.001281, x2 = 0.001258	1.22	0.989	0.822	0.709
x1 = 0.001285, x2 = 0.0001799	1.204	0.969	0.805	0.685
x1 = 0.001294, x2 = 0.0007194	1.213	0.977	0.812	0.685
x1 = 0.001641, x2 = 0.0001799	1.217	0.98	0.815	0.694
x1 = 0.001649, x2 = 0.0007191	1.226	0.988	0.821	0.694
x1 = 0.001666, x2 = 0.001258	1.233	1.001	0.832	0.719
x1 = 0.001985, x2 = 0.0001798	1.23	0.991	0.825	0.703
x1 = 0.002032, x2 = 0.0007188	1.239	0.999	0.831	0.703
x1 = 0.002034, x2 = 0.001257	1.246	1.013	0.843	0.728
x1 = 0.002348, x2 = 0.0001797	1.244	1.002	0.835	0.712
x1 = 0.002385, x2 = 0.0007186	1.253	1.012	0.842	0.712
x1 = 0.002389, x2 = 0.001257	1.26	1.025	0.854	0.737
x1 = 0.00272, x2 = 0.0001797	1.258	1.014	0.845	0.721
x1 = 0.002762, x2 = 0.0007183	1.267	1.025	0.854	0.721
x1 = 0.002776, x2 = 0.001256	1.275	1.037	0.865	0.746
x1 = 0.003079, x2 = 0.0001796	1.273	1.026	0.855	0.73
x1 = 0.003114, x2 = 0.000718	1.282	1.037	0.866	0.731
x1 = 0.003126, x2 = 0.001256	1.291	1.049	0.876	0.755
x1 = 0.003445, x2 = 0.0001796	1.288	1.038	0.865	0.739
x1 = 0.003472, x2 = 0.001255	1.307	1.063	0.888	0.764
x1 = 0.003507, x2 = 0.0007177	1.297	1.05	0.878	0.741
